In patent publication US20240368139A1, “NOVEL MODULATORS OF EHMT1 AND EHMT2 AND THERAPEUTIC USE THEREOF” (Tango Therapeutics, Inc., priority 2021, published 2024):

Assays:
human EHMT1 982-1266 = molecular target: T1, human EHMT1 982-1266 (Homo sapiens, UniProt Q9H9B1); assay: EHMT1 enzyme assay on histone peptide substrate (3H-SAM SPA); details: EHMT1 IC50, recombinant human EHMT1 982-1266, histone peptide substrate
T1 sequence (Q9H9B1 982-1266): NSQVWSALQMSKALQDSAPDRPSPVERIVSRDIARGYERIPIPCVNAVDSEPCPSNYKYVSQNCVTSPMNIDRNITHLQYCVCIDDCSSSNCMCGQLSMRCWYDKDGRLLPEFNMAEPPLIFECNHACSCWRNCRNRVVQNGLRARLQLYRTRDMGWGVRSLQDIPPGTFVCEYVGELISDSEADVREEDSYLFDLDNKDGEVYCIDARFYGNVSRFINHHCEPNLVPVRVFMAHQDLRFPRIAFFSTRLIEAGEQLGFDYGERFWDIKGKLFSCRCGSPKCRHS

human EHMT2 913-1193 = molecular target: T2, human EHMT2 913-1193 (Homo sapiens, UniProt Q96KQ7); assay: EHMT2 enzyme assay on histone peptide substrate (3H-SAM SPA); details: EHMT2 IC50, recombinant human EHMT2 913-1193, histone peptide substrate
T2 sequence (Q96KQ7 913-1193): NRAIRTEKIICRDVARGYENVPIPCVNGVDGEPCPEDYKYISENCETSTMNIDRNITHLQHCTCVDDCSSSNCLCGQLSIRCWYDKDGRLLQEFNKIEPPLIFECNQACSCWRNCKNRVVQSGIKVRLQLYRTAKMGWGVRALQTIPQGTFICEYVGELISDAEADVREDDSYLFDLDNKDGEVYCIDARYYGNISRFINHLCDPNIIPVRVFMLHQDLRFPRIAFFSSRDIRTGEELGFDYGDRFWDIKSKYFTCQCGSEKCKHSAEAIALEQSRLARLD

H3K9me2 in HCT116 cells = assay: HCT116 H3K9me2 in-cell western assay; format: cell-based; details: Homo sapiens, HCT-116, 72 h, HCT116 cells, 72 hours incubation; read-out: H3K9me2 ICW IC50
Description: HCT116 cell line was purchased from ATCC (Manassas, VA, USA). […] Penicillin-Streptomycin and heat inactivated fetal bovine serum were purchased from Hyclone (Logan, UT, USA). DPBS, Corning^R were purchased from VWR (Radnor, PA, USA). Triton′ X-100 was purchased from Sigma (St. Louis, MO, USA). Intercept blocking buffer, DRAQ5, Licor Odyssey Infrared Scanner were purchased from Licor Biosciences (Lincoln, NB, USA). Plate washer was purchased from BioTek (Winooski, VT, USA). […] 16% Paraformaldehyde was purchased from Electron Microscopy Sciences (Hatfield, PA, USA). HCT116 cells were maintained in complete growth medium (RPMI supplemented with 10% heat inactivated fetal bovine serum, 1% Penicillin-Streptomycin) and cultured at 37° C. under 5% CO2. N^2-(4-methoxy-3-(3-(pyrrolidin-1-yl)propoxy)phenyl)-N^4,6-dimethyl]pyrimidine-2,4-diamine (synthesis disclosed in International Application WO2017181177A1) was used as a control compound.
HCT116 cells (ATCC) were trypsinized, counted and seeded in assay medium (RPMI supplemented with 10% heat inactivated fetal bovine serum, 1% Penicillin-Streptomycin) at a concentration of 2,000 cells per well to a 384-well cell culture plate with compounds in 50 μl per well. Plates were incubated with at 37° C. under 5% CO2 for 72 hours. After the incubation, 50 μl per well of 8% paraformaldehyde in PBS was added to the plates and incubated at room temperature for 20 minutes. Plates were transferred to a BioTek (EL406) plate washer and washed 5 times with 110 μl per well of wash buffer (1×PBS containing 0.1% Triton X-100). The plates were next blocked with 50 μl of Intercept blocking buffer for 1 hour at room temperature. Blocking buffer was removed and 30 μl per well of monoclonal primary antibody of H3K9me2 (CST) diluted 1:200 in Intercept blocking buffer were added and plates were incubated overnight at 4° C. The plates were then washed 5 times with 110 μl per well of wash buffer (1×PBS containing 0.1% Triton X-100). Next 30 μl per well of secondary was added (1:400 800 CW goat anti-rabbit IgG in blocking buffer) with 1:1000 DRAQ5 in blocking buffer and incubated for 2 hours at room temperature. The plates were washed 5 times with 110 μl per well of wash buffer (1×PBS containing 0.1% Triton X-100) then with 100 μl per well of water once. Plates were allowed to dry at room temperature then imaged on a Licor Odyssey Infrared Scanner which measured integrated intensity at 700 nm and 800 nm wavelength. Both 700 and 800 channels were scanned.
The average of the ratio values (800 nm/700 nm) for each well was calculated and used to determine the percentage for each test well in the plate. Compounds were serially diluted two-fold in 0.1% DMSO for a total of 10 test concentrations beginning at 10 μM. IC50 curves were generated using duplicate wells per concentration of compound. […] IC50 values were calculated using a non-linear regression of Prism.

Row | SMILES | IC50 (human EHMT1 982-1266) [µM] | IC50 (human EHMT2 913-1193) [µM] | IC50 (H3K9me2 in HCT116 cells) [µM]
1 | CNc1nc(Nc2cc(OCCCN3CCCC3)c3occc3c2)nc(C)c1F [Compound 109, 5-fluoro-N4,6-dimethyl-N2-[7-(3-pyrrolidin-1-ylpropoxy)benzofuran-5-yl]pyrimidine-2,4-diamine] | > 2 | > 2 | > 2
2 | CNc1cc(C)nc(Nc2cc3c(c(OCCN4CCCC4)c2)OCC3)n1 [Compound 112, N4,6-dimethyl-N2-[7-(2-pyrrolidin-1-ylethoxy)-2,3-dihydrobenzofuran-5-yl]pyrimidine-2,4-diamine] | 0.1 to 0.5 | > 2 | 0.5 to 2
3 | CNc1cc(C)nc(Nc2cc3c(c(OCCCN4CCCC4)c2)OCC(=O)N3)n1 [Compound 114] | > 2 | > 2 | > 2
4 | Cc1cc(N)nc(Nc2cc3c(c(OCCCN4CCCC4)c2)OCC3)n1 [Compound 115, 6-methyl-N2-[7-(3-pyrrolidin-1-ylpropoxy)-2,3-dihydrobenzofuran-5-yl]pyrimidine-2,4-diamine] | > 2 | > 2 | 0.5 to 2
5 | Cc1cc(NC2CCCC2)nc(Nc2cc3c(c(OCCCN4CCCC4)c2)OCC3)n1 [Compound 116, N4-cyclopentyl-6-methyl-N2-[7-(3-pyrrolidin-1-ylpropoxy)-2,3-dihydrobenzofuran-5-yl]pyrimidine-2,4-diamine] | 0.5 to 2 | > 2 | > 2
6 | Cc1cc(NC2CCCCC2)nc(Nc2cc3c(c(OCCCN4CCCC4)c2)OCC3)n1 [Compound 117, N4-cyclohexyl-6-methyl-N2-[7-(3-pyrrolidin-1-ylpropoxy)-2,3-dihydrobenzofuran-5-yl]pyrimidine-2,4-diamine] | 0.5 to 2 | > 2 | > 2
7 | Cc1cc(NC2CCC2)nc(Nc2cc3c(c(OCCCN4CCCC4)c2)OCC3)n1 [Compound 119, N4-cyclobutyl-6-methyl-N2-[7-(3-pyrrolidin-1-ylpropoxy)-2,3-dihydrobenzofuran-5-yl]pyrimidine-2,4-diamine] | 0.5 to 2 | > 2 | 0.5 to 2
8 | CNc1cc(C)nc(Nc2cc(OCCCN3CCCC3)c3oc(=O)[nH]c3c2)n1 [Compound 124, 5-[[4-methyl-6-(methylamino)pyrimidin-2-yl]amino]-7-(3-pyrrolidin-1-ylpropoxy)-3H-1,3-benzoxazol-2-one] | 0.1 to 0.5 | > 2 | > 2
9 | CNc1cc(C)nc(Nc2cc3c(c(N4CCCNCC4)c2)OCC3)n1 [Compound 125, N2-[7-(1,4-diazepan-1-yl)-2,3-dihydrobenzofuran-5-yl]-N4,6-dimethyl-pyrimidine-2,4-diamine] | 0.5 to 2 | 0.5 to 2 | 0.5 to 2
10 | CNc1cc(C)nc(Nc2cc3c(c(N4CCCN(C)CC4)c2)OCC3)n1 [Compound 126, N4,6-dimethyl-N2-[7-(4-methyl-1,4-diazepan-1-yl)-2,3-dihydrobenzofuran-5-yl]pyrimidine-2,4-diamine] | 0.5 to 2 | 0.5 to 2 | 0.5 to 2
11 | CNc1cc(C)nc(Nc2cc(OCCCN3CCCC3)c3c(c2)N(Cc2ccccc2)CCO3)n1 [Compound 127, N2-[4-benzyl-8-(3-pyrrolidin-1-ylpropoxy)-2,3-dihydro-1,4-benzoxazin-6-yl]-N4,6-dimethyl-pyrimidine-2,4-diamine] | 0.1 to 0.5 | 0.5 to 2 | 0.5 to 2
12 | CNc1cc(C)nc(Nc2cc3c(c(N4C[C@H]5CNC[C@H]5C4)c2)OCC3)n1 [Compound 128, N4,6-dimethyl-N2-[7-[rac-(3aS,6aR)-2,3,3a,4,6,6a-hexahydro-1H-pyrrolo[3,4-c]pyrrol-5-yl]-2,3-dihydrobenzofuran-5-yl]pyrimidine-2,4-diamine] | 0.5 to 2 | > 2 | 0.5 to 2
13 | CNc1cc(C)nc(Nc2cc3c(c(OCCCN4CCCC4)c2)OCCN3)n1 [Compound 136] | 0.1 to 0.5 | > 2 | 0.5 to 2
14 | CNc1cc(C)nc(Nc2cc3c(c(C4=CCN(C)CCC4)c2)OCO3)n1 [Compound 141, N4,6-dimethyl-N2-[7-(1-methyl-2,3,4,7-tetrahydroazepin-5-yl)-1,3-benzodioxol-5-yl]pyrimidine-2,4-diamine] | < 0.1 | 0.1 to 0.5 | < 0.1
15 | CNc1cc(C)nc(Nc2cc3c(c(C4=CCN(CCOC)CCC4)c2)OCO3)n1 [Compound 145, N2-[7-[1-(2-methoxyethyl)-2,3,4,7-tetrahydroazepin-5-yl]-1,3-benzodioxol-5-yl]-N4,6-dimethyl-pyrimidine-2,4-diamine] | 0.5 to 2 | > 2 | 0.1 to 0.5
16 | CNc1cc(C)nc(Nc2cc3c(c(C4=CCN(C)CCC4)c2)OCCO3)c1 [Compound 146, N4,6-dimethyl-N2-[5-(1-methyl-2,3,4,7-tetrahydroazepin-5-yl)-2,3-dihydro-1,4-benzodioxin-7-yl]pyridine-2,4-diamine] | 0.1 to 0.5 | 0.5 to 2 | 0.1 to 0.5
17 | CNc1cc(C)nc(Nc2cc(OCCCN3CCCC3)c3c(c2)OCO3)c1 [Compound 147, N4,6-dimethyl-N2-[7-(3-pyrrolidin-1-ylpropoxy)-1,3-benzodioxol-5-yl]pyridine-2,4-diamine] | 0.5 to 2 | > 2 | 0.5 to 2
18 | CNc1cc(C)nc(Nc2cc3c(c(C4=CCC(N)CC4)c2)OCC3)n1 (stereo not drawn) [Compound 148, N2-[7-(4-aminocyclohexen-1-yl)-2,3-dihydrobenzofuran-5-yl]-N4,6-dimethyl-pyrimidine-2,4-diamine] | 0.5 to 2 | > 2 | 0.5 to 2
19 | CNc1cc(C)nc(Nc2cc3c(c(C4CCNCC4)c2)OCC3)n1 [Compound 149, N4,6-dimethyl-N2-[7-(4-piperidyl)-2,3-dihydrobenzofuran-5-yl]pyrimidine-2,4-diamine] | > 2 | > 2 | > 2
20 | CNc1cc(C)nc(Nc2cc3c(c(N4CCNCC4)c2)OCC3)n1 [Compound 152] | > 2 | > 2 | > 2
21 | CNc1cc(C)nc(Nc2cc3c(c([C@H]4CC[C@H](N)CC4)c2)OCC3)n1 [Compound 153, N2-[7-(4-aminocyclohexyl)-2,3-dihydrobenzofuran-5-yl]-N4,6-dimethyl-pyrimidine-2,4-diamine] | > 2 | > 2 | > 2
22 | CNc1cc(C)nc(Nc2cc(OCCCN3CCCC3)c3c(c2)OC(F)(F)O3)n1 [Compound 154, N2-[2,2-difluoro-7-(3-pyrrolidin-1-ylpropoxy)-1,3-benzodioxol-5-yl]-N4,6-dimethyl-pyrimidine-2,4-diamine] | < 0.1 | 0.5 to 2 | 0.1 to 0.5
23 | CNc1cc(C)nc(Nc2cc3c(c(C4=CCNCC4)c2)OCC3)n1 [Compound 155, N4,6-dimethyl-N2-[7-(1,2,3,6-tetrahydropyridin-4-yl)-2,3-dihydrobenzofuran-5-yl]pyrimidine-2,4-diamine] | 0.1 to 0.5 | 0.5 to 2 | 0.1 to 0.5
